One test concerns HCC1937. The test is described as follows: In vitro drug sensitivity test of cells, MTS method. In kind it is cell-based. The settings on record: HCC1937 human breast cancer cells, culture time 72 h-216 h. The text has this: (§1) 1640 medium (Gibco), DMEM medium (Hyclone), MEM medium (Gibco), […] medium (Gibco), DMEM/F12 medium (Gibco), L-15 medium (Hyclone), IMDM culture Base (Hyclone), non-essential amino acid (Gibco), sodium pyruvate (Gibco), insulin-transferrin-selenium additive TS-G, Shanghai Yuanpei Bio-tech), fetal bovine serum ([…]), trypsin digestion fluid (Jiangsu KGI), Cell Titer 96® AQueousOne Solution Cell Proliferation Assay (Promega), 96-well cell culture plate (Corning, Cat. No. 3599), Cisplatin (sigma, Cat. No. P4394), Olaparib (Selleck, Cat. No. S1060), Topotecan hydrochloride hydrate (Sigma, article number T2705), Paclitaxel (Dalian Meilun, article number MB1178). [table] […] Then the inventors adjusted the cell suspension concentration to 1×10^4/mL, added the cells to a 96 well plate as 100 ul per well, that is, 1000-2000 cells per well. Then the cells were incubated at 5% CO2, 37° C. overnight. The next day, after the cells at the bottom of the 96-well plate adhered, various drugs with different concentration gradients were added: […] After putting the 96-well plate into a CO2 incubator for 72 hours, the cell morphology and density in each were observed. For slow-growing cells, supplementation treatment was needed. For different cells, the culture time was between 72 h-216 h, and most of the cell culture time was between 144 h-168 h. […] Measure the absorbance (OD) of each well at 492 nm. Cell Viabilities was calculated by the formula: [formula]
A general note: Formazan colour is commonly taken as a measure of viable cells.

A further test has as its system H3122. The test is described as above. The class given is cell-based. Conditions: culture time 72 h-216 h.
Text: as §1

For a further test, the system named is PC-3. Described as above. Conditions: PC-3 human prostate cancer cells, culture time 72 h-216 h. In kind it is cell-based.
Text: as §1

The subject of a further test is MCF-7. The description is as above. The class given is cell-based. Conditions: culture time 72 h-216 h.
Text: as §1

Another test relates to H1975. The test is described as above. In kind it is cell-based. Conditions: culture time 72 h-216 h.
Text: as §1

In another test the test system is HCC95. The description is as above. Conditions: HCC95 human lung cancer cells, culture time 72 h-216 h. In kind it is cell-based.
Text: as §1

A further test deals with T84. The description is as above. In kind it is cell-based. Conditions: T84 human colon cancer cells, culture time 72 h-216 h.
Text: as §1

The subject of a further test is CAMA-1. Described as above. In kind it is cell-based. Conditions: CAMA-1 human breast cancer cells, culture time 72 h-216 h.
Text: as §1

A further test has as its system H2444. Described as above. The settings on record: culture time 72 h-216 h. The class given is cell-based.
Text: as §1

Another test concerns Capan-1. Described as above. In kind it is cell-based. The settings on record: Capan-1 human pancreatic cancer cells, culture time 72 h-216 h.
Text: as §1

The next test deals with H1650. The test is described as above. In kind it is cell-based. The settings on record: culture time 72 h-216 h.
Text: as §1

The test system of a further test is HCC4006. The test is described as above. The settings on record: HCC4006 human lung adenocarcinoma cells, culture time 72 h-216 h. In kind it is cell-based.
Text: as §1

A further test concerns MDA-MB-436. Described as above. The class given is cell-based. Conditions: MDA-MB-436 human breast cancer cells, culture time 72 h-216 h.
Text: as §1

The next test concerns H1299. The description is as above. In kind it is cell-based. Conditions: culture time 72 h-216 h.
Text: as §1

The subject of a further test is HEK-293. The test is described as above. The settings on record: culture time 72 h-216 h. The class given is cell-based.
Text: as §1

A further test relates to KYSE450. The description is as above. In kind it is cell-based. Conditions: culture time 72 h-216 h.
Text: as §1

The subject of the next test is H2228. Described as above. The class given is cell-based. Conditions: culture time 72 h-216 h.
Text: as §1

The subject of a further test is HT29. The description is as above. In kind it is cell-based. The settings on record: culture time 72 h-216 h.
Text: as §1

For another test, the system named is A549. The description is as above. The class given is cell-based. Conditions: A549 human non-small cell lung adenocarcinoma cells, culture time 72 h-216 h.
Text: as §1

The next test has as its system Cal-120. The description is as above. The class given is cell-based. The settings on record: Cal-120 human breast cancer cells, culture time 72 h-216 h.
Text: as §1

The subject of a further test is H520. Described as above. The class given is cell-based. The settings on record: culture time 72 h-216 h.
Text: as §1

A further test has as its system HCC827. The test is described as above. In kind it is cell-based. Conditions: HCC827 human lung adenocarcinoma cells, culture time 72 h-216 h.
Text: as §1

A further test deals with TNBC patients. The settings on record: CALGB 40603 study, combined carboplatin, cited from earlier work.
[1] abbreviates: NCI-H3122, H3122 human non-small cell lung cancer cells.
Where [2] appears, read: MCF7, MCF-7 human breast cancer cells.
Setting [3] is: NCI-H1975, H1975 human non-small cell lung adenocarcinoma cells.
[4] abbreviates: NCI-H2444, H2444 human non-small cell lung cancer cells.
[5] abbreviates: NCI-H1650, H1650 human lung cancer cells.
The mark [6] stands for this setting: NCI-H1299, H1299 human non-small cell lung cancer cells.
Where [7] appears, read: HEK293, HEK-293 human embryonic kidney cells.
The mark [8] stands for this setting: KYSE-450, KYSE450 human esophageal cancer cells.
Where [9] appears, read: NCI-H2228, H2228 human non-small cell lung adenocarcinoma cells.
The mark [10] stands for this setting: HT-29, HT29 human colon cancer cells.
The mark [11] stands for this setting: NCI-H520, H520 human non-small cell lung squamous cell.

pIC50: −log10 of the molar value. Structures can show the parent of a compound that is named as a salt.

The values below come from US20200354796A1, “Use of DNA Recombination Deficiency Score (RDS) in Cancer Treatment” (SHUWEN BIOTECH CO., LTD., priority 2017, published 2020).

For orientation: pIC50 means the negative decadic logarithm of the IC50, by convention in mol/L. A low value points to a large IC50.

As for `N.N.[Cl][Pt][Cl]` [Cisplatin, cis-diaminedichloroplatinum(II)], the pIC50 with HCC1937 is 6.59; in the test on H3122 (H3122 human non-small cell lung cancer cells), 5.81; with PC-3, 6.10; in the test on MCF-7 (MCF-7 human breast cancer cells) it was 6.05; in the test with H1975 (H1975 human non-small cell lung adenocarcinoma cells), 5.16; in the test on HCC95 it was 6.06. Besides, the pIC50 with T84 was 6.36; in the test with CAMA-1, 5.85; with H2444 (H2444 human non-small cell lung cancer cells), 5.94; with Capan-1, 6.67; with H1650 (H1650 human lung cancer cells) it was 5.97; in the test with HCC4006, 6.00. The negative-log IC50 (pIC50) with MDA-MB-436 is 6.86; in the test with H1299 (H1299 human non-small cell lung cancer cells), 5.70; in the test with HEK-293 (HEK-293 human embryonic kidney cells), 6.33; in the test with KYSE450 (KYSE450 human esophageal cancer cells) it was 5.84; in the test on H2228 (H2228 human non-small cell lung adenocarcinoma cells) it was 6.29; in the test with HT29 (HT29 human colon cancer cells), 6.16. The pIC50 was 6.00 in the test on A549, 5.35 in the test with Cal-120, 6.33 with H520 (H520 human non-small cell lung squamous cell) and 6.20 in the test with HCC827.
As to `O=C(c1cc(Cc2n[nH]c(=O)c3ccccc23)ccc1F)N1CCN(C(=O)C2CC2)CC1` [Olaparib], the pIC50 with HCC1937 was 5.00; with H3122 (setting [1]), 4.77; with PC-3, 5.21; in the test on MCF-7 (setting [2]), 5.45; in the test on H1975 (setting [3]), 4.10; with HCC95, 4.60. Further, the pIC50 with T84 was 5.23; with CAMA-1, 5.08; in the test on H2444 (setting [4]), 5.12; with Capan-1 it was 5.59; in the test with H1650 (setting [5]), 4.12; in the test on HCC4006, 5.04. The pIC50 was greater than 5.60 in the test with MDA-MB-436; 4.40 with H1299 (setting [6]); 5.23 with HEK-293 (setting [7]); 3.89 with KYSE450 (setting [8]); 4.97 in the test on H2228 (setting [9]); 5.12 in the test with HT29 (setting [10]). Moreover, the pIC50 in the test with A549 was 4.10; with Cal-120 it was 3.80; in the test on H520 (setting [11]) it was 5.66; with HCC827, 5.22.
In the case of `CC(=O)O[C@H]1C(=O)[C@@]2(C)[C@H]([C@H](OC(=O)c3ccccc3)[C@]3(O)C[C@H](OC(=O)[C@H](O)[C@@H](NC(=O)c4ccccc4)c4ccccc4)C(C)=C1C3(C)C)[C@]1(OC(C)=O)CO[C@@H]1C[C@@H]2O` [Paclitaxel], the pIC50 with HCC1937 is 8.05; in the test on H3122 (setting [1]) it was 8.07; in the test on PC-3 it was 8.37; in the test with MCF-7 (setting [2]) it was 8.32; with H1975 (setting [3]) it was 8.16; in the test with HCC95, 8.21. In addition, the pIC50 in the test with T84 was 7.49; in the test with CAMA-1, 8.38; in the test on H2444 (setting [4]), 8.15; in the test on Capan-1 it was 8.16; with H1650 (setting [5]) it was 8.18; in the test with HCC4006 it was 8.41. Also, the pIC50 in the test on MDA-MB-436 was 8.01; in the test on H1299 (setting [6]) it was 7.64; with HEK-293 (setting [7]) it was 7.99; in the test on KYSE450 (setting [8]), 7.94; in the test with H2228 (setting [9]) it was 8.28; in the test with HT29 (setting [10]) it was 8.52. Also, the pIC50 with A549 is 8.23; with Cal-120, 7.36; with H520 (setting [11]), 8.16; in the test on HCC827 it was 8.03.
In the case of `CC[C@@]1(O)C(=O)OCc2c1cc1n(c2=O)Cc2cc3c(CN(C)C)c(O)ccc3nc2-1` [Topotecan, Topotecan hydrochloride hydrate], the pIC50 in the test on HCC1937 is 7.45; in the test with H3122 (setting [1]) it was 7.70; with PC-3 it was 7.70; in the test with MCF-7 (setting [2]) it was 8.69; with H1975 (setting [3]) it was 6.60; in the test with HCC95 it was 7.33. The pIC50 in the test with T84 is 8.12; in the test with CAMA-1, 9.04; in the test with H2444 (setting [4]), 8.09; in the test with Capan-1, 7.80; in the test with H1650 (setting [5]), 6.90; in the test with HCC4006 it was 7.64. Further, the pIC50 with MDA-MB-436 was 8.38; with H1299 (setting [6]), 7.54; in the test with HEK-293 (setting [7]), 7.75; in the test with KYSE450 (setting [8]) it was 7.58; in the test on H2228 (setting [9]) it was 7.61; in the test on HT29 (setting [10]), 7.81. Moreover, the pIC50 with A549 was 6.60; with Cal-120, 6.29; in the test on H520 (setting [11]) it was 8.04; with HCC827, 7.90.
As to carboplatin, in the test with TNBC patients (vs 41% without, P=0.0029), the “breast/axillary pCR rates” value was 54%. The “breast pCR rates” value in the test with TNBC patients (vs 44% without, P=0.0018) was 60%.
